From paper PMC10909431 (Journal of Peptide Science, 2023)
Read-outs that look alike come from different tables or passages of the source. Numbered stars: 1 amine (or outer) side, 2 acyl side, 3 side chain; on linkers, the order of the positions; unused ones are H or OH. Bridge positions count the residues as written; N and C are the ends. Square brackets hold non-standard residues; d marks the D form. Triazole bridges read from a SMILES are 1,4-linked. Ends that are not written are not given here. Peptide text beside a SMILES is read from it. Orn(N3) = [N-]=[N+]=NCCC[C@H](N)C(=O)O; S5 = C=CCCC[C@](C)(N)C(=O)O; X1 = c1c(C[*:2])nnn1CC[*:1]; Pra = C#CC[C@H](N)C(=O)O

Tests used:
IR‐A = biological target: T1, IR‐A (Homo sapiens, UniProt P06213); assay: Receptor-binding: competition with [125I]-monoiodotyrosyl-TyrA14-insulin for IR-A in IM-9 cell membranes; conditions: cell membranes of human IM-9 lymphocytes, each curve in duplicate, Kd from at least three binding curves, ± S.D., SD
T1 construct: for IR‐A in cell membranes of human IM‐9 lymphocytes (ATCC); host or cells: human IM-9 lymphocytes (cell membranes)
Method: The binding curve of each analog was determined in duplicate, and the final dissociation constant (K d) was calculated from at least three binding curves.

IR [1] = conditions: cited from earlier work
From the text: (§1) Scientific teams from Novo Nordisk A/S and Antyra, Inc., used the technique of expressing libraries of peptide sequences on the surface of bacteriophage and, by testing their binding affinities, discovered a number of peptides that bound very efficiently to IR while activating or inhibiting it.[19], [20]

[2] = tested on: insulin effect on plasma glucose; conditions: cited from earlier work
From the text: as §1, with “[20] […] One of these peptides was […] or S592, which bound only to bindi ...” for “[20]”

[3] = tested on: insulin‐stimulated lipogenesis in cells; conditions: cited from earlier work
From the text: as §1, with “[20] […] One of these peptides was […] or S592, which bound only to bindi ...” for “[20]”

IR [4] = conditions: cited from earlier work; for agonistic or antagonistic activities: peptides tested separately

T1 sequence (P06213 28-1370 isoform P06213-2 limits assumed): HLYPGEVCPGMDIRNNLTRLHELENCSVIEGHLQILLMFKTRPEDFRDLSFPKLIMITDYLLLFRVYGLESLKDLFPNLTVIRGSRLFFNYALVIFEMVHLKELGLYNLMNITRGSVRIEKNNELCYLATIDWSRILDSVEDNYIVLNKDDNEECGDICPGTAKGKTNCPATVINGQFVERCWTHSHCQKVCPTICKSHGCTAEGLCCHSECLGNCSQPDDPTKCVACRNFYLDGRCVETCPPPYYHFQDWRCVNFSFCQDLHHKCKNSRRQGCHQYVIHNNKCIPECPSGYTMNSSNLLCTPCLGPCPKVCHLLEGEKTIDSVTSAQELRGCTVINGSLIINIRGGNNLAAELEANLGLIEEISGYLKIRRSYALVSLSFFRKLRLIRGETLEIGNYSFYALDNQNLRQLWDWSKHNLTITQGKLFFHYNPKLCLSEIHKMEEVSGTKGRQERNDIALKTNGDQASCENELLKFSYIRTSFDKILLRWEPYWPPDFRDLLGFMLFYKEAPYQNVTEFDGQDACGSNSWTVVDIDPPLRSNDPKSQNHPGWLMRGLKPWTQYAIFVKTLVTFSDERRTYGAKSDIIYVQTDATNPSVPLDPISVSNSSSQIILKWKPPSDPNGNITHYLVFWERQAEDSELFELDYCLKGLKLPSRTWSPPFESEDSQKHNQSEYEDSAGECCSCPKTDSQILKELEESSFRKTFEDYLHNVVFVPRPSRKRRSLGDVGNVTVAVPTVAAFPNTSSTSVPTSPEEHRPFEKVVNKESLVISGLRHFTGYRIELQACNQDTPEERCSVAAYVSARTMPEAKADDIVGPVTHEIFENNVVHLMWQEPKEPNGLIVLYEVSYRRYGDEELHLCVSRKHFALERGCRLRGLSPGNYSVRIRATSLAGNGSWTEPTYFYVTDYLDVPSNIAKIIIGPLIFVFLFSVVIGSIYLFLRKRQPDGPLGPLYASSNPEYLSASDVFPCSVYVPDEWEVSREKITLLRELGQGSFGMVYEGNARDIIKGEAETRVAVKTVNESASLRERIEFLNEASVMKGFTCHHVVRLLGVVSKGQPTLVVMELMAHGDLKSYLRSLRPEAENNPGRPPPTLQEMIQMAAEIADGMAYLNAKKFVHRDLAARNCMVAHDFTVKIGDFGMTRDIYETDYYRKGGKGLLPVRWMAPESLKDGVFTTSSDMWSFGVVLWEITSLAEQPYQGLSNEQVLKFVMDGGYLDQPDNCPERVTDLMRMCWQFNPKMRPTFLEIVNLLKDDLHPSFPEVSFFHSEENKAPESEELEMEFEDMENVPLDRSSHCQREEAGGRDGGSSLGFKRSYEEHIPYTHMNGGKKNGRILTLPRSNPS
T1 sequence (P06213 763-1382 partner limits assumed): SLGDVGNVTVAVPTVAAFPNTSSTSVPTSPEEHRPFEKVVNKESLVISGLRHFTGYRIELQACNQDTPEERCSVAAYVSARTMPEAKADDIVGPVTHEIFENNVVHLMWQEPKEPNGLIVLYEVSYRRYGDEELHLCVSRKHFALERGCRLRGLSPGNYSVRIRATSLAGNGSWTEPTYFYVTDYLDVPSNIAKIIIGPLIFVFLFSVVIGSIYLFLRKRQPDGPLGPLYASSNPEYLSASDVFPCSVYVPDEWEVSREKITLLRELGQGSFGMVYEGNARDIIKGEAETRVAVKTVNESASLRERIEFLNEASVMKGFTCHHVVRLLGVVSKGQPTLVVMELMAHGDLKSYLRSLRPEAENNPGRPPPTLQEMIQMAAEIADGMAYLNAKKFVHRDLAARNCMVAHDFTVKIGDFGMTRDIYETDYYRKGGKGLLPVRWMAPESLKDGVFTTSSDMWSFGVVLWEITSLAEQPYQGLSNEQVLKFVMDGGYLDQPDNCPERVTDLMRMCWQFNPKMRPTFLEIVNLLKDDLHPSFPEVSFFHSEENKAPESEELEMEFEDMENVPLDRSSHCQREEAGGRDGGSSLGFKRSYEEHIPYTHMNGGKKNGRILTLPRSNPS

**Q.** Which Kd (IR‐A) does the source give for `CC[C@H](C)[C@H](NC(=O)[C@H](CCC(N)=O)NC(=O)[C@H](C)NC(=O)[C@H](Cc1c[nH]c2ccccc12)NC(=O)[C@H](CCC(=O)O)NC(=O)[C@H](CCC(=O)O)NC(=O)[C@H](CCC(=O)O)NC(=O)[C@H](CC(C)C)NC(=O)[C@@H](N)CO)C(=O)N[C@@H](CCC(=O)O)C(=O)N[C@H]1CSSC[C@@H](C(=O)N2CCC[C@H]2C(=O)N[C@@H](CO)C(N)=O)NC(=O)CNC(=O)[C@H](CCCNC(=N)N)NC(=O)CNC(=O)[C@H](Cc2c[nH]c3ccccc23)NC(=O)[C@H](C(C)C)NC(=O)[C@H](CCC(=O)O)NC1=O` [peptide 1] (H-SLEEEWAQIECEVWGRGCPS-NH2; disulfide 11-18) here?
**A.** The Kd was 3.9 ± 1 nM.

**Q.** With `CC[C@H](C)[C@H](NC(=O)[C@H](CCC(N)=O)NC(=O)[C@H](C)NC(=O)[C@H](Cc1c[nH]c2ccccc12)NC(=O)[C@H](CCC(=O)O)NC(=O)[C@H](CCC(=O)O)NC(=O)[C@H](CCC(=O)O)NC(=O)[C@H](CC(C)C)NC(=O)[C@@H](N)CO)C(=O)N[C@@H](CCC(=O)O)C(=O)N[C@@]1(C)CCCC=CCCC[C@@](C)(C(=O)N2CCC[C@H]2C(=O)N[C@@H](CO)C(N)=O)NC(=O)CNC(=O)[C@H](CCCNC(=N)N)NC(=O)CNC(=O)[C@H](Cc2c[nH]c3ccccc23)NC(=O)[C@H](C(C)C)NC(=O)[C@H](CCC(=O)O)NC1=O` [peptide 2] (H-SLEEEWAQIE[S5]EVWGRG[S5]PS-NH2; staple 11-18) as the compound, how does the Kd (IR‐A) read?
**A.** The Kd was 49 ± 6 nM.

**Q.** For `CC[C@H](C)[C@H](NC(=O)[C@H](CCC(N)=O)NC(=O)[C@H](C)NC(=O)[C@H](Cc1c[nH]c2ccccc12)NC(=O)[C@H](CCC(=O)O)NC(=O)[C@H](CCC(=O)O)NC(=O)[C@H](CCC(=O)O)NC(=O)[C@H](CC(C)C)NC(=O)[C@@H](N)CO)C(=O)N[C@@H](CCC(=O)O)C(=O)N[C@H]1CCCn2cc(nn2)C[C@@H](C(=O)N2CCC[C@H]2C(=O)N[C@@H](CO)C(N)=O)NC(=O)CNC(=O)[C@H](CCCNC(=N)N)NC(=O)CNC(=O)[C@H](Cc2c[nH]c3ccccc23)NC(=O)[C@H](C(C)C)NC(=O)[C@H](CCC(=O)O)NC1=O` [peptide 3] (H-SLEEEWAQIE[Orn(N3)]EVWGRG[Pra]PS-NH2; triazole 11-18), which Kd (IR‐A) is on record?
**A.** Its Kd is 15 ± 3 nM.

**Q.** Which Kd (IR‐A) does the source give for `CC[C@H](C)[C@H](NC(=O)[C@H](CCC(N)=O)NC(=O)[C@H](C)NC(=O)[C@H](Cc1c[nH]c2ccccc12)NC(=O)[C@H](CCC(=O)O)NC(=O)[C@H](CCC(=O)O)NC(=O)[C@H](CCC(=O)O)NC(=O)[C@H](CC(C)C)NC(=O)[C@@H](N)CO)C(=O)N[C@@H](CCC(=O)O)C(=O)N[C@H]1CSCCn2cc(nn2)CSC[C@@H](C(=O)N2CCC[C@H]2C(=O)N[C@@H](CO)C(N)=O)NC(=O)CNC(=O)[C@H](CCCNC(=N)N)NC(=O)CNC(=O)[C@H](Cc2c[nH]c3ccccc23)NC(=O)[C@H](C(C)C)NC(=O)[C@H](CCC(=O)O)NC1=O` [peptide 4] (H-SLEEEWAQIECEVWGRGCPS-NH2; linker 11-18 via X1) here?
**A.** The Kd was 25 ± 7 nM.

**Q.** For `CC[C@H](C)[C@H](NC(=O)[C@H](CCC(N)=O)NC(=O)[C@H](C)NC(=O)[C@H](Cc1c[nH]c2ccccc12)NC(=O)[C@H](CCC(=O)O)NC(=O)[C@H](CCC(=O)O)NC(=O)[C@H](CCC(=O)O)NC(=O)[C@H](CC(C)C)NC(=O)[C@@H](N)CO)C(=O)N[C@@H](CCC(=O)O)C(=O)N[C@H]1CSCCn2cc(nn2)COC[C@@H](C(=O)N2CCC[C@H]2C(=O)N[C@@H](CO)C(N)=O)NC(=O)CNC(=O)[C@H](CCCNC(=N)N)NC(=O)CNC(=O)[C@H](Cc2c[nH]c3ccccc23)NC(=O)[C@H](C(C)C)NC(=O)[C@H](CCC(=O)O)NC1=O` [peptide 5] (H-SLEEEWAQIECEVWGRGSPS-NH2; linker 11-18 via X1), which Kd (IR‐A) is on record?
**A.** The Kd was 75 ± 29 nM.

**Q.** With “#SLEEEWAQIE C EVYGR C PPSES‐amide (disulfide) [IM172N22, peptide representing the Site 2 part of IM459]” as the compound, how does the Kd (IR [1]; read-out: binding affinity) read?
**A.** The Kd was 3.1 nM.

**Q.** Which “ability to activate IR” value (IR [1]) does the source give for “#SLEQEWaKIE C EVYGK C PPKKAyKWFERQLK‐amide (disulfide) [IM459, variant of S519 with several modifications, IR agonist]” here?
**A.** The value was “retains the ability to activate IR (agonist)”.

**Q.** Which “binding affinities for IR” value (IR [1]) does the source give for “GSLDESFYDWFERQLGGGSGGSSLEEEWAQIQ C EVWGRG C PSY (disulfide) [S961, Site 1–linker–Site 2 fusion peptide with free C-terminus, IR antagonist]” here?
**A.** Its value is “native insulin‐like binding affinities”.

**Q.** What about the “inhibition of the insulin effect on plasma glucose in mice” value [2] of the same compound?
**A.** The value was “fully inhibit”.

**Q.** And the “inhibition of insulin‐stimulated lipogenesis in cells” value [3]?
**A.** The value was “fully inhibit”.

**Q.** With “GSLDESFYDWFERQLGGGSGGSSLEEEWAQIQ C EVWGRG C PSY‐amide (disulfide) [S661, Site 1–linker–Site 2 fusion peptide with amidated C-terminus, IR antagonist]” as the compound, how does the “binding affinities for IR” value (IR [1]) read?
**A.** The value was “native insulin‐like binding affinities”.

**Q.** What about the “inhibition of the insulin effect on plasma glucose in mice” value [2] of the same compound?
**A.** The value was “fully inhibit”.

**Q.** And the “inhibition of insulin‐stimulated lipogenesis in cells” value [3]?
**A.** Its value is “fully inhibit”.

**Q.** With “GSLDESFYDWFERQLGGGSGGSSLEEEWAQIQSEVWGRGSPSY-NH2 [Cys → Ser in S661, S661 variant with cysteines mutated to serines, without the disulfide bridge]” as the compound, how does the “change of antagonistic activity versus S661” value (IR [4]; inhibition of insulin-stimulated IR phosphorylation in cells) read?
**A.** Its value is “eightfold decrease”.

**Q.** With GSLDESFYDWFERQLGKK [S371] as the compound, how does the “agonistic or antagonistic activities” value (IR [4]) read?
**A.** The value was “did not detect any agonistic or antagonistic activities”.

**Q.** For “SLEEEWAQ-NH2 [N-terminal segment peptide of the Site 2 mimetics, without the cyclized part]”, which Kd (IR [1]; read-out: binding affinity) is on record?
**A.** Its Kd is 900 nM.

**Q.** Which “activation of the receptor” value (IR [1]) does the source give for “SLEEEWAQIE C EVWGRG C PSY (disulfide) [S592]” here?
**A.** The value was “does not activate the receptor”.

**Q.** And the Kd (IR [1]; read-out: K d for binding to the IR)?
**A.** Its Kd is 1.7 nM.

**Q.** Which insulin signal remaining (IR [4]; 1 nM insulin, peptide at the concentration 100 nM) does the source give for “SLEEEWAQIQSEVWGRGSPSYC [Cys → Ser in S592, Site 2 peptide with Cys-to-Ser mutations produced by Brandt et al]” here?
**A.** Its insulin signal remaining is 50–60%.

**Q.** What about the “agonistic or antagonistic activities” value (IR [4]) of the same compound?
**A.** The value was “did not detect any agonistic or antagonistic activities”.

**Q.** Which “agonism / antagonism of IR” value (IR [1]) does the source give for “SLEEEWAQVE C EVYGRG C PSGSLDESFYDWFERQLG (disulfide) [S519, Site 2–Site 1 fusion peptide, IR agonist]” here?
**A.** Its value is “did not show antagonistic effects and instead agonized IR”.

**Q.** What about the “binding to IR” value (IR [1]) of the same compound?
**A.** The value was “very high affinity”.
